In publication PMC6883804, “Cathelicidin Contributes to the Restriction of Leishmania in Human Host Macrophages” (Frontiers in Immunology, 2019):

Assays:
CAMP = CAMP gene expression in hMDM1 by qRT-PCR after vitamin D derivatives; assay type: cell-based, human; details: hMDM1, 100 nM, after 6 days (late), qRT-PCR normalized to GAPDH and to untreated control = 1, mean ± SD, n = 1-5
Procedure: Human peripheral mononuclear cells (PBMCs) were isolated from buffy coats (DRK-Blutspendedienst Hessen GmbH) by passage over a Leukocyte Separation Medium gradient as described previously ([30]). Monocytes, obtained by plastic adherence or CD14 selection were incubated either with 10 ng/ml rhGM-CSF (Leukine® Sanofi-Aventis, Bridgewater, US) or 30 ng/ml rhM-CSF (R&D Systems, Abingdon, UK) for a period of 5 to 7 d at 37°C, 5% CO2 to generate hMDM1 or hMDM2, respectively. Cells were generated in 6 w plates or in 25 cm^2 culture flasks and were detached by cooling cells down on ice, following detachment with a cell scraper. […]
The cells were co-incubated with stationary phase Lm or Lae promastigotes or axenic amastigotes at a MOI ratio of 1:10 in RPMI 1640 supplemented with 10% heat inactivated fetal calf serum, 50 μM β-mercaptoethanol (all from Sigma Aldrich), 2 mM L-glutamine, 100 U/ml penicillin and 100 μg/ml streptomycin, 10 mM HEPES (all from Biochrom) for 3 h at 37°C in a humidified atmosphere in a CO2 incubator. […] The LmdsRed promastigotes increase their fluorescence intensity when transforming into amastigotes, which enables the quantification of the parasite propagation by measuring the dsRed mean fluorescence intensity using FACS ([62], [63]). […]

cathelicidin = test: Cathelicidin protein expression in hMDM1 by western blot densitometry; assay type: cell-based, human; details: hMDM1, 100 nM, western blot densitometry normalized to ß-actin and untreated control = 1, mean ± SD, n = 5-7
Procedure: Human peripheral mononuclear cells (PBMCs) were isolated from buffy coats (DRK-Blutspendedienst Hessen GmbH) by passage over a Leukocyte Separation Medium gradient as described previously ([30]). Monocytes, obtained by plastic adherence or CD14 selection were incubated either with 10 ng/ml rhGM-CSF (Leukine® Sanofi-Aventis, Bridgewater, US) or 30 ng/ml rhM-CSF (R&D Systems, Abingdon, UK) for a period of 5 to 7 d at 37°C, 5% CO2 to generate hMDM1 or hMDM2, respectively. Cells were generated in 6 w plates or in 25 cm^2 culture flasks and were detached by cooling cells down on ice, following detachment with a cell scraper. Experimental data, conducted with monocytes obtained from human donors, are depicted as dot plots, in which each dot presents data from a single donor.
(§1) The cells were co-incubated with stationary phase Lm or Lae promastigotes or axenic amastigotes at a MOI ratio of 1:10 in RPMI 1640 supplemented with 10% heat inactivated fetal calf serum, 50 μM β-mercaptoethanol (all from Sigma Aldrich), 2 mM L-glutamine, 100 U/ml penicillin and 100 μg/ml streptomycin, 10 mM HEPES (all from Biochrom) for 3 h at 37°C in a humidified atmosphere in a CO2 incubator. Extracellular parasites were removed by centrifugation and washing the cells. During infection experiments, cathelicidin expression was induced by incubation of hMDM with 100 nM calcitriol or calcipotriol for 24 h. […] The LmdsRed promastigotes increase their fluorescence intensity when transforming into amastigotes, which enables the quantification of the parasite propagation by measuring the dsRed mean fluorescence intensity using FACS ([62], [63]).
A total number of 0.5 × 10^6 hMDM were lysed in Lämmli-Buffer (A. bidest supplemented with 0.7 M Glycerol, 1.7% SDS, 0.1 M DTT and 30 μM Bromphenol blue), denaturated at 95°C for 10 min and loaded onto a 15% SDS-polyacrylamide gel. […] The membrane was washed once more and the protein bands were detected using an ECL substrate (GE Healthcare, Buckinghamshire, United Kingdom). Using ImageJ, densitometry analysis was performed to quantify the intensities of the protein bands.

L. major dsRed in hMDM1 [1] = test: Parasite survival (dsRed MFI) in infected hMDM1 by flow cytometry; assay type: cell-based, Leishmania major; details: hMDM1 pretreated 24 h with 100 nM, infected with Lm dsRed MOI 10, flow cytometry, mean ± SD; control 1.00 ± 0.46
Procedure: as §1, with “h. For transgenic LmdsRed flow cytometry was used to analyze infection rates.” for “h.”
(§2) • FACS analysis of Leishmania parasites was performed as described Wenzel et al. ([61]). […] The cells were washed in FACS-Buffer and analyzed by flow cytometry. • To assess parasite survival, Leishmania (dsRed^+) infected hMDM were washed in FACS-buffer and infection rate (% of dsRed^+ hMDM) and the parasite load (mean fluorescent intensity) were assessed by flow cytometry. […] Data were analyzed by BD FACS Diva or FlowJo software (Treestar).

L. major dsRed in hMDM1 [2] = test: Infection rate (% dsRed+ hMDM1) by flow cytometry; assay type: cell-based, Leishmania major; details: hMDM1 pretreated 24 h with 100 nM, infected with Lm dsRed MOI 10, flow cytometry
Procedure: as §1, with “h. For transgenic LmdsRed flow cytometry was used to analyze infection rates.” for “h.”
as §2

L. aethiopica (Lae) [3] = test: DNA fragmentation (TUNEL) by flow cytometry, L. aethiopica; assay type: cell-based, Leishmania aethiopica
Procedure: (§3) L. major (Lm, MHOM_IL_81_FEBNI), L. aethiopica (Lae, MHOM/ET/72/L100 Z14), and the transgenic Lm dsRed (construct pSSUint-DsRed was a kind gift from Dr. Toni Aebischer, Robert Koch Institute, Berlin, Germany) and Lae dsRed promastigotes were cultured at 27°C in biphasic Novy-Nicolle-McNeal blood agar medium as described ([60]). Of note, all viable promastigotes express the transgenic dsRed protein. Upon transformation into the amastigote life stage, a 1 log-scale higher dsRed fluorescence is present, due to the high-level expression in the amastigote life stage ([31]). Logarithmic-phase or stationary-phase promastigotes were obtained after 2 (log-phase) or 7 (stat-phase) days of culture, respectively. Lm and Lae axenic amastigotes were generated by incubating log-phase promastigotes in pH 5.5 at 33°C and isolated using a discontinuous Histopaque® 1119 (Sigma Aldrich, Germany) density gradient as described ([61]).
(§4) To assess apoptosis, Lm and Lae promastigotes, which resided in a logarithmic growth phase, were treated with 30 and 60 ng/ml hrLL37 (PeptaNova GmbH, Sandhausen, Germany) for 72 h. […] Subsequently, DNA fragmentation was assessed by flow cytometry or immunofluorescence imaging using an in situ cell-death detection kit, based on terminal deoxynucleotidyl transferase dUTP nick end labeling (TUNEL), as described ([30]). Exposure of phosphatidylserine (PS) was assessed by AnnexinA5 binding using flow cytometry.
(§5) • FACS analysis of Leishmania parasites was performed as described Wenzel et al. ([61]). Apoptosis, among parasites, was assessed by staining with AnnexinA5-Alexa Fluor 647 using a Ca^2+ rich buffer. • For phenotyping hMDM by flow cytometry, hMDM were washed in FACS-Buffer (PBS supplemented with 1% FCS, 1% human serum and 1% BSA) and incubated with anti-CD14-FITC (1:100, IgG2b), anti-CD163-PE (1:50, IgG1, GHI/61), or anti-MHC II-PerCP (1:100, IgG2a, L243) for 30 min on ice in the dark. […] Upon analyzing, at least 10,000 events (human cells) or 20,000 (parasites) were recorded using a BD LSR II flow cytometer (BD Bioscience, Heidelberg, Germany). […]

Leishmania major (Lm) [4] = test: DNA fragmentation (TUNEL) by flow cytometry, L. major; assay type: cell-based; details: mean ± SD
Procedure: as §3, §4, §5

L. aethiopica (Lae) [5] = test: Phosphatidylserine exposure (AnnexinA5 binding) by flow cytometry, L. aethiopica; assay type: cell-based, Leishmania aethiopica; details: mean ± SD; for AnnexinA5-binding parasites: Lae log-phase promastigotes, 72 h, untreated 8.0 ± 4.5%
Procedure: as §3, §4, §5

Leishmania major (Lm) [6] = test: Phosphatidylserine exposure (AnnexinA5 binding) by flow cytometry, L. major; assay type: cell-based; details: mean ± SD; for AnnexinA5-binding parasites: Lm log-phase promastigotes, 72 h, untreated 14.7 ± 11.1%
Procedure: as §3, §4, §5

Leishmania promastigotes = test: Parasite morphology by microscopy after hrLL37 treatment; assay type: cell-based; details: microscopy (Figure 2C), as described for apoptotic parasites
Procedure: To assess apoptosis, Lm and Lae promastigotes, which resided in a logarithmic growth phase, were treated with 30 and 60 ng/ml hrLL37 (PeptaNova GmbH, Sandhausen, Germany) for 72 h. Leishmania axenic amastigotes were treated with 10 and 100 ng/ml hrLL37 or 25 μM staurosporine for 24 h. Subsequently, DNA fragmentation was assessed by flow cytometry or immunofluorescence imaging using an in situ cell-death detection kit, based on terminal deoxynucleotidyl transferase dUTP nick end labeling (TUNEL), as described ([30]). Exposure of phosphatidylserine (PS) was assessed by AnnexinA5 binding using flow cytometry.

[7] = higher of two hrLL37 concentrations (60 ng/ml per methods)
[8] = lower of two hrLL37 concentrations (30 ng/ml per methods)

Compound	CAMP gene expression, fold increase (CAMP) [fold]	cathelicidin protein expression, fold increase (cathelicidin; late (6 d)) [fold]	L. major parasite survival (mean fluorescent intensity of dsRed, relative to control) (L. major dsRed in hMDM1 [1])	percentage of hMDM1 infected cells (infection rate) (L. major dsRed in hMDM1 [2])	cathelicidin protein expression, fold increase (cathelicidin; early (24 h)) [fold]	TUNEL positivity (L. aethiopica (Lae) [3]; Lae axenic amastigotes, hrLL37 (10 and 100 ng/ml in methods, concentration of this value not stated), 24 h, mean ± SD, untreated 32.3 ± 13.3%) [%]	TUNEL positivity (L. aethiopica (Lae) [3]; Lae log-phase promastigotes, higher of two increasing hrLL37 concentrations (60 ng/ml per methods), 72 h, mean ± SD of at least 3 experiments, untreated 13.3 ± 1.2%) [%]	TUNEL positivity (L. aethiopica (Lae) [3]; Lae log-phase promastigotes, lower of two increasing hrLL37 concentrations (30 ng/ml per methods), 72 h, mean ± SD of at least 3 experiments, untreated 13.3 ± 1.2%) [%]	TUNEL positivity (Leishmania major (Lm) [4]; Lm axenic amastigotes, rhLL37 (10 and 100 ng/ml in methods, concentration of this value not stated), 24 h, not significantly increased, untreated 12.0 ± 6.6%) [%]	TUNEL positivity (Leishmania major (Lm) [4]; Lm log-phase promastigotes, higher of two increasing hrLL37 concentrations (60 ng/ml per methods), 72 h, untreated 6.24 ± 1.9%) [%]	TUNEL positivity (Leishmania major (Lm) [4]; Lm log-phase promastigotes, lower of two increasing hrLL37 concentrations (30 ng/ml per methods), 72 h, untreated 6.24 ± 1.9%) [%]	AnnexinA5 binding (L. aethiopica (Lae) [5]; Lae axenic amastigotes, hrLL37 (10 and 100 ng/ml in methods, concentration of this value not stated), 24 h, untreated 18.7 ± 6.1%) [%]	AnnexinA5-binding parasites (L. aethiopica (Lae) [5]; [7]) [%]	AnnexinA5-binding parasites (L. aethiopica (Lae) [5]; [8]) [%]	AnnexinA5 binding (Leishmania major (Lm) [6]; Lm axenic amastigotes, rhLL37 (10 and 100 ng/ml in methods, concentration of this value not stated), 24 h, minor but significant increase, untreated 3.3 ± 2.3%) [%]	AnnexinA5-binding parasites (Leishmania major (Lm) [6]; [7]) [%]	AnnexinA5-binding parasites (Leishmania major (Lm) [6]; [8]) [%]	Morphology of treated parasites (Leishmania promastigotes)
C=C1/C(=C\C=C2/CCC[C@]3(C)[C@@H]([C@H](C)/C=C/[C@@H](O)C4CC4)CC[C@@H]23)C[C@@H](O)C[C@@H]1O [CPT, calcipotriol]	282	101.9 ± 125.4	0.74 ± 0.23	did not change significantly	–	–	–	–	–	–	–	–	–	–	–	–	–	–
C=C1/C(=C\C=C2/CCC[C@]3(C)[C@@H]([C@H](C)CCCC(C)(C)O)CC[C@@H]23)C[C@@H](O)C[C@@H]1O [CCT, 1α, 25-dihydroxyvitamin D3]	587 ± 173	152.5 ± 149.6	0.60 ± 0.25	did not change significantly	25.5 ± 22.2	–	–	–	–	–	–	–	–	–	–	–	–	–
hrLL37: human recombinant LL37 (PeptaNova GmbH), the hCAP18-derived amphipathic α-helical antimicrobial peptide	–	–	–	–	–	87.0 ± 6.1	21.1 ± 2.3	15.5 ± 8.3	12.1 ± 2.1	22.9 ± 3.1	20.2 ± 0.7	71.3 ± 12.6	31.3 ± 26	27.1 ± 14.3	8.3 ± 3.0	74.8 ± 23.2	51.5 ± 20.5	round-shaped morphology
